Data published in patent US20230081390A1, “INHIBITORS OF RAF KINASES” (Kinnate Biopharma Inc., priority 2019, published 2023).

How the values were obtained:
human RAF1 = human RAF1 (Homo sapiens, UniProt P04049); experiment: Protein kinase assay (33P-ATP filter binding), human RAF1, 10-dose IC50; format: biochemical; settings: MEK1 (K97R) substrate 3 micromolar, ATP 10 micromolar, read-out: RAF-1 IC50
Outline: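 Human RAF1 phosphorylated human MEK1 (K97R) substrate at 3 µM with 10 µM ATP (³³P), in pH 7.5 HEPES buffer with MgCl2, EGTA, Brij35, BSA, Na3VO4 and DTT. Reactions ran for 2 hr at room temperature with P81 filter capture.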

human BRAF = human BRAF (Homo sapiens, UniProt P15056); experiment: Protein kinase assay (33P-ATP filter binding), human BRAF, 10-dose IC50; format: biochemical; settings: MEK1 (K97R) substrate 1 micromolar, ATP 25 micromolar, read-out: B-RAF IC50
Sequence of human BRAF (P15056 whole entry): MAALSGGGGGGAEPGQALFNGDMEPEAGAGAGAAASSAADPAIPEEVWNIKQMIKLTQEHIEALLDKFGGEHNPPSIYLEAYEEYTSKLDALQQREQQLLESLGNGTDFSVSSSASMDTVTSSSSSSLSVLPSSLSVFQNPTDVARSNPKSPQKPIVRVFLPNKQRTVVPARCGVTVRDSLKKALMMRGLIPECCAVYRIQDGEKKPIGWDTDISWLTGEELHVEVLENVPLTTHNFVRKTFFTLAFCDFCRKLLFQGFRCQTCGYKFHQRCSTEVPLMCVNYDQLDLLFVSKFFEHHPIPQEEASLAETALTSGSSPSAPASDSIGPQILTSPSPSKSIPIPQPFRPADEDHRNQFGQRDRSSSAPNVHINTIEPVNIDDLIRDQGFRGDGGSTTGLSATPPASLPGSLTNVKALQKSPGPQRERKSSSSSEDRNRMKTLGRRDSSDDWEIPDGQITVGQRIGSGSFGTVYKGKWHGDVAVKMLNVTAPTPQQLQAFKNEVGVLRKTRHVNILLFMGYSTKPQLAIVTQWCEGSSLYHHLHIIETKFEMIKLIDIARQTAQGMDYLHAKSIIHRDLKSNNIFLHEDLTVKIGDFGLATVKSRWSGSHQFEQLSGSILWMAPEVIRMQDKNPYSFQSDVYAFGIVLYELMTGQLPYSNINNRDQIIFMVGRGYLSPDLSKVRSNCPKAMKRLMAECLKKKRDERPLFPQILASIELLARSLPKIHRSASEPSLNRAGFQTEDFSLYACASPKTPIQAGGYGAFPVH
Experimental: Protein kinase assay: Assay platform was used to measure kinase/inhibitor interactions as described previously (Anastassiadis et al., 2011). In brief, for each reaction, kinase and substrate were mixed in a buffer containing 20 mM HEPES (pH 7.5), 10 mM MgCl2, 1 mM EGTA, 0.02% Brij35, 0.02 mg/mL BSA, 0.1 mM Na3VO4, 2 mM DTT, and […]. All compounds were solubilized in DMSO. Compounds were then added to each reaction mixture via acoustic dispense using an ECHO 550 nanoliter dispenser. For human RAF1 testing, human MEK1 (K97R) was used as a substrate at a concentration of 3 micromolar, with a final ATP concentration of 10 micromolar. For human BRAF testing, human MEK1 (K97R) was used as a substrate at 1 micromolar concentration, with a final ATP concentration of 25 micromolar. […] After a 20-min incubation, ATP (Sigma-Aldrich, St. Louis, Mo. 63178) and [g33P] ATP (specific activity 10 microCi/microliter) purchased at PerkinElmer (Boston, Mass., 02118 Cat #BLU 003H250UC) were added at a final total concentration of […]. Reactions were carried out at room temperature for 2 hr and spotted onto P81 ion exchange cellulose chromatography paper (Reaction Biology). Filter paper was washed in 0.75% phosphoric acid to remove unincorporated ATP. The percent remaining kinase activity relative to a vehicle-containing (DMSO) kinase reaction was calculated for each kinase/inhibitor pair. IC50 values were calculated using Prism 5 (GraphPad).

Sequence of human RAF1 (P04049 whole entry): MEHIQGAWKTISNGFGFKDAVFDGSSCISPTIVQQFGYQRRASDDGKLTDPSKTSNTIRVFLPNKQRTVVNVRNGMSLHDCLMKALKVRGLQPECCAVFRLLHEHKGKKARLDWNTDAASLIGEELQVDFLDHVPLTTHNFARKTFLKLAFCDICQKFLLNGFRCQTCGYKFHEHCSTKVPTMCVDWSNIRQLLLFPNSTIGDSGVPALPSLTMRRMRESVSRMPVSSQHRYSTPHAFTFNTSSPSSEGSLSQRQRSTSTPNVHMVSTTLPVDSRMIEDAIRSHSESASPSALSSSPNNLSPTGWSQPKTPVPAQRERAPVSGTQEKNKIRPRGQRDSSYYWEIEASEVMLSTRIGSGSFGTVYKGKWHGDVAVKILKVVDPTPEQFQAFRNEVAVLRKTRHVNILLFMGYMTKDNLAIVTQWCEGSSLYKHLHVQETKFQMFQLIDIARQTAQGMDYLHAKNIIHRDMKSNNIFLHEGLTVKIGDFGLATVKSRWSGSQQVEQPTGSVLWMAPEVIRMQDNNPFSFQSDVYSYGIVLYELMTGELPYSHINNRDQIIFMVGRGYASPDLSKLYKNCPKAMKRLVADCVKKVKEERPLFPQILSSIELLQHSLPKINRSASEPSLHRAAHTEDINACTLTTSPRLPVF

| Compound | IC50 (human RAF1) | IC50 (human BRAF) |
| --- | --- | --- |
| Cc1cc(F)c(NC(=O)N2CCNC(C(F)(F)F)C2)cc1-c1cc(OCCO)nc(N2CCOCC2)c1 (racemic) [Example 7, (RS)-N-(2-fluoro-5-(2-(2-hydroxyethoxy)-6-morpholinopyridin-4-yl)-4-methylphenyl)-3-(trifluoromethyl)piperazine-1-carboxamide] | < 10 nM | 100 to 1000 nM |
| Cc1cc(F)c(NC(=O)N2CCCC(C(C)(C)C)C2)cc1-c1cc(OCCO)nc(N2CCOCC2)c1 (racemic) [Example 8, (RS)-3-(tert-butyl)-N-(2-fluoro-5-(2-(2-hydroxyethoxy)-6-morpholinopyridin-4-yl)-4-methylphenyl)piperidine-1-carboxamide] | < 10 nM | 10 to 100 nM |
| Cc1cc(F)c(NC(=O)N2CCOC(C(F)(F)F)C2)cc1-c1cc(OCCO)nc(N2CCOCC2)c1 (racemic) [Example 10, (RS)-N-(2-fluoro-5-(2-(2-hydroxyethoxy)-6-morpholinopyridin-4-yl)-4-methylphenyl)-2-(trifluoromethyl)morpholine-4-carboxamide] | < 10 nM | 10 to 100 nM |
| Cc1cc(F)c(NC(=O)N2CCNC(C(C)(C)C)C2)cc1-c1cc(OCCO)nc(N2CCOCC2)c1 (racemic) [Example 11, (RS)-3-(tert-butyl)-N-(2-fluoro-5-(2-(2-hydroxyethoxy)-6-morpholinopyridin-4-yl)-4-methylphenyl)piperazine-1-carboxamide] | 10 to 100 nM | 100 to 1000 nM |
| Cc1cc(F)c(NC(=O)N2CC[C@@H](C(F)(F)F)C2)cc1-c1cc(OCCO)nc(N2CCOCC2)c1 [Example 1, (R)-N-(2-fluoro-5-(2-(2-hydroxyethoxy)-6-morpholinopyridin-4-yl)-4-methylphenyl)-3-(trifluoromethyl)pyrrolidine-1-carboxamide] | < 10 nM | 10 to 100 nM |
| Cc1cc(F)c(NC(=O)N2CC[C@H](C(F)(F)F)C2)cc1-c1cc(OCCO)nc(N2CCOCC2)c1 [Example 2, (S)-N-(2-fluoro-5-(2-(2-hydroxyethoxy)-6-morpholinopyridin-4-yl)-4-methylphenyl)-3-(trifluoromethyl)pyrrolidine-1-carboxamide] | < 10 nM | 10 to 100 nM |
| Cc1cc(F)c(NC(=O)NCCC(C)(C)C)cc1-c1cc(OCCO)nc(N2CCOCC2)c1 [Example 6, 1-(3,3-dimethylbutyl)-3-(2-fluoro-5-(2-(2-hydroxyethoxy)-6-morpholinopyridin-4-yl)-4-methylphenyl)urea] | < 10 nM | 10 to 100 nM |
| Cc1cc(F)c(NC(=O)N2CCOC(C(C)(C)C)C2)cc1-c1cc(OCCO)nc(N2CCOCC2)c1 (stereo not shown) [Example 9, 2-(tert-butyl)-N-(2-fluoro-5-(2-(2-hydroxyethoxy)-6-morpholinopyridin-4-yl)-4-methylphenyl)morpholine-4-carboxamide] | < 10 nM | 10 to 100 nM |
